Assay results: patent US5545638A, “Method of treating gastrointestinal motility disorders” (Novo Nordisk A/S, priority 1995, dated 1996)
Counter-ions that a name gives are not always drawn.

Target: muscarinic receptors
Test: Inhibition of ^3 H-oxotremorine-M binding to muscarinic receptors
Parameters: species or system rat (male Sprague-Dawley, cerebral cortex)
Conditions: 3 nM ^3 H-oxotremorine-M, rat cerebral cortical membranes, 15 min, 25° C., pH 7.4; concentration to inhibit specific binding 50%; read-out: Inhibition of ^3 H-Oxo
Procedure: The affinity of the compounds for the muscarinic receptors was determined using the non-selective agonist ligand, ^3 H-oxotremorine-M. Birdsdall N. J. M., Hulme E. C., and Burgen A. S. V., "The Character of Muscarinic Receptors in Different Regions of the Rat Brain", 207 Proc. Roy. Soc. 1 (London, Series B, 1980). Each compound was tested to determine the affinity of the compound for the muscarinic receptors using the following procedure.
For each in vitro binding, male Sprague-Dawley (Harlan Sprague-Dawley, Indianapolis, Ind.) rats weighing from about 100 to about 150 grams each were sacrificed by decapitation. The brains were quickly removed and the cerebral cortex were dissected from the brain. The cerebral cortex tissue was homogenized in 10 volumes of 0.32M sucrose and homogenized for about 10 minutes at about 1000×g. […]
The aforementioned homogenates mixture was incubated for about 15 minutes at about 25° C. and then the homogenates were filtered through glass filters (Whatman, GF/C) with vacuum. The filters were washed 3 times with about 2 ml of cold tris-Cl buffer, and placed in scintillation vials containing about 10 ml of scintillation fluid (Ready Protein+, Beckman, Fullerton, Calif.). Radioactivity trapped on the filters was determined by liquid scintillation spectrometry. Nonspecific binding was determined using 1 μM atropine. […]

Compound: C=CCCCCOc1nsnc1C1=CCCN(C)C1 [Compound 33, 3-(3-(5-Hexenyloxy)-1,2,5-thiadiazol-4-yl)-1,2,5,6-tetrahydro-1-methylpyridine oxalate]
- IC50: 2.7 nM
